{"source": "paper PMC8205226", "about": "“HIV-1 Integrase Inhibitors with Modifications That Affect Their Potencies against Drug Resistant Integrase Mutants” (ACS Infectious Diseases, 2021)", "assay_type_in_all_cases": "cell-based", "key": {"HIV-1 IN mutant Y143H": {"test_system": "HIV-1 IN mutant Y143H", "test": "single-round infectivity assay, Y143H IN mutant", "procedure": "(§1) Figure 4 Mutations in the β5-α3 loop affect the antiviral potencies of the new compounds. The EC50 values were determined using a vector that carries the IN mutant in a single round infection assay. […] Error bars represent the standard deviations of independent experiments, n = 4, performed in triplicate.\n(§2) WT and mutant HIV-1 viral vectors were used in single-round infectivity assays to determine the antiviral potencies (EC50 values) of the compounds and the effects of the mutants on the EC50 values as previously described.[30],[54] Single round infectivity measurements were determined as done previously.[38]\n(§3) The vector pNLNgoMIVR-ΔENV.LUC has been described previously.[26] To produce the new IN mutants used in this study, the IN open reading frame was removed from pNLNgoMIVR-ΔENV.LUC by digestion with KpnI and SalI, and the resulting fragment was inserted between the KpnI and SalI sites of pBluescript KS+. Using that construct as the wild-type template, we prepared the following HIV-1 IN mutants using the QuikChange II XL site directed mutagenesis kit (Agilent Technologies, Santa Clara, CA) protocol: N117A, N117H, P142A, P142H, P142S, Y143C, Y143H, S230R, R231G, and R231K. The following sense oligonucleotides were used with matching cognate antisense oligonucleotides (not shown) (Integrated DNA Technologies, Coralville, IA) in the mutagenesis: N117A, 5′-[…]-3′; N117H, 5′-[…]-3′; P142A, 5′-[…]-3′; P142H, 5′-[…]-3′; P142S, 5′-[…]-3′; Y143C, 5′- […]-3′; Y143H, 5′-[…]-3′; S230R, 5′- […]-3′; R231G, 5′-[…]-3′; R231K, 5′-[…]-3′."}, "[1]": {"test_system": "HIV-1 IN double mutant G140S/Q148H", "test": "single-round infectivity assay, G140S/Q148H IN double mutant", "procedure": "(§4) Figure 2 Antiviral activities of the new compounds against RAL-resistant mutants. The EC50 values were determined using a vector that carries WT HIV-1 IN and the RAL-resistant mutants in a single round infection assay. […] Error bars represent the standard deviations of independent experiments, n = 4, performed in triplicate. The graph has a maximum value of 550 nM.\nas §2, §3"}, "HIV-1 IN mutant P142A": {"test_system": "HIV-1 IN mutant P142A", "test": "single-round infectivity assay, P142A IN mutant", "procedure": "as §1, §2, §3"}, "HIV-1 IN mutant P142S": {"test_system": "HIV-1 IN mutant P142S", "test": "single-round infectivity assay, P142S IN mutant", "procedure": "as §1, §2, §3"}, "WT HIV-1": {"test_system": "WT HIV-1", "test": "single-round infectivity assay, WT HIV-1 IN vector", "settings": "Human immunodeficiency virus 1, read-out: EC50 values WT, vector carrying WT HIV-1 IN, single round infection, n = 4; new compounds", "procedure": "as §4, §2, §3"}, "HIV-1 IN mutant N117A": {"test_system": "HIV-1 IN mutant N117A", "test": "single-round infectivity assay, N117A IN mutant", "procedure": "(§5) The EC50 values were determined using a vector that carries the IN mutant in a single round infection assay. […] Error bars represent the standard deviations of independent experiments, n = 4, performed in triplicate.\nas §2, §3"}, "HIV-1 IN mutant R231G": {"test_system": "HIV-1 IN mutant R231G", "test": "single-round infectivity assay, R231G IN mutant", "procedure": "as §5, with “Figure 5 Antiviral potencies of the new compounds against IN with mutations in the […]. The” for “The”\nas §2, §3"}, "HIV-1 IN mutant G118R": {"test_system": "HIV-1 IN mutant G118R", "test": "single-round infectivity assay, G118R IN mutant", "procedure": "as §5, §2, §3"}, "HIV-1 IN mutant Y143C": {"test_system": "HIV-1 IN mutant Y143C", "test": "single-round infectivity assay, Y143C IN mutant", "procedure": "as §1, §2, §3"}, "HIV-1 IN mutant P142H": {"test_system": "HIV-1 IN mutant P142H", "test": "single-round infectivity assay, P142H IN mutant", "procedure": "as §5\nSingle round infectivity measurements were determined as done previously.[38]\nas §3"}, "HIV-1 IN mutant N117H": {"test_system": "HIV-1 IN mutant N117H", "test": "single-round infectivity assay, N117H IN mutant", "procedure": "as §5, §2, §3"}, "HIV-1 IN mutant N155H": {"test_system": "HIV-1 IN mutant N155H", "test": "single-round infectivity assay, N155H IN mutant", "procedure": "as §4, §2, §3"}, "HIV-1 IN mutant R231K": {"test_system": "HIV-1 IN mutant R231K", "test": "single-round infectivity assay, R231K IN mutant", "procedure": "as §5, with “Figure 5 Antiviral potencies of the new compounds against IN with mutations in the […]. The” for “The”\nas §2, §3"}, "HIV-1 IN mutant S119R": {"test_system": "HIV-1 IN mutant S119R", "test": "single-round infectivity assay, S119R IN mutant", "procedure": "as §5, §2, §3"}, "HIV-1 IN mutant Y143R": {"test_system": "HIV-1 IN mutant Y143R", "test": "single-round infectivity assay, Y143R IN mutant", "procedure": "as §4, §2, §3"}, "HIV-1 IN mutant S230R": {"test_system": "HIV-1 IN mutant S230R", "test": "single-round infectivity assay, S230R IN mutant", "procedure": "as §5, with “Figure 5 Antiviral potencies of the new compounds against IN with mutations in the […]. The” for “The”\nas §2, §3"}, "[2]": {"settings": "fold change in EC50, IN mutant versus WT HIV-1"}}, "note": "Read-outs that look alike come from different tables or passages of the source."}
{"smiles": "O=C(NCc1ccc(F)cc1F)c1c(O)c2cc(CCS(=O)(=O)c3ccccc3)cnc2n(O)c1=O", "note": "[6w, N-(2,4-Difluorobenzyl)-1,4-dihydroxy-2-oxo-6-(2-(phenylsulfonyl)ethyl)-1,2-dihydro-1,8-naphthyridine-3-carboxamide]", "values": [{"measurement": "ratio of the EC50s (our compound relative to DTG) against Y143H", "setting": "HIV-1 IN mutant Y143H; EC50 compound / EC50 DTG", "value": 11.4}, {"measurement": "EC50", "setting": "HIV-1 IN mutant Y143H; Human immunodeficiency virus 1, read-out: EC50 values Y143H, single round infection, n = 4", "value": "25.1 ± 3.6", "unit": "nM"}, {"measurement": "EC50", "setting": "HIV-1 IN mutant Y143H; read-out: EC50 values Y143H, single round infection, n = 4", "value": "> 18", "unit": "nM"}, {"measurement": "FC, difference in potencies 6w compared to 4f against G140S/Q148H", "setting": "[1]; EC50 6w / EC50 4f", "value": 18.8}, {"measurement": "ratio of the EC50s (our compound relative to DTG) against G140S/Q148H", "setting": "[1]; EC50 compound / EC50 DTG", "value": 16.8}, {"measurement": "EC50", "setting": "[1]; Human immunodeficiency virus 1, read-out: EC50 values G140S/Q148H", "value": "97.5 ± 16.8", "unit": "nM"}, {"measurement": "FC G140S/Q148H", "setting": "[1]; [2]", "value": 9.2}, {"measurement": "ratio of the EC50s (our compound relative to DTG) against P142A", "setting": "HIV-1 IN mutant P142A; EC50 compound / EC50 DTG", "value": 9.1}, {"measurement": "EC50", "setting": "HIV-1 IN mutant P142A; Human immunodeficiency virus 1, read-out: EC50 values P142A", "value": "22.8 ± 2.5", "unit": "nM"}, {"measurement": "ratio of the EC50s (our compound relative to DTG) against P142S", "setting": "HIV-1 IN mutant P142S; EC50 compound / EC50 DTG", "value": 14.2}, {"measurement": "EC50", "setting": "HIV-1 IN mutant P142S; Human immunodeficiency virus 1, read-out: EC50 values P142S", "value": "31.2 ± 3.7", "unit": "nM"}, {"measurement": "EC50", "setting": "WT HIV-1", "value": "10.6 ± 1", "unit": "nM"}, {"measurement": "ratio of the EC50s (our compound relative to DTG) against N117A", "setting": "HIV-1 IN mutant N117A; EC50 compound / EC50 DTG", "value": 12.8}, {"measurement": "EC50", "setting": "HIV-1 IN mutant N117A; Human immunodeficiency virus 1, read-out: EC50 values N117A", "value": 6.4, "unit": "nM"}, {"measurement": "FC N117A", "setting": "HIV-1 IN mutant N117A; [2]", "value": 0.6}, {"measurement": "ratio of the EC50s (our compound relative to DTG) against R231G", "setting": "HIV-1 IN mutant R231G; EC50 compound / EC50 DTG", "value": 10.9}, {"measurement": "EC50", "setting": "HIV-1 IN mutant R231G; Human immunodeficiency virus 1, read-out: EC50 values R231G", "value": "15.2 ± 1.4", "unit": "nM"}, {"measurement": "FC R231G", "setting": "HIV-1 IN mutant R231G; [2]", "value": 1.4}, {"measurement": "ratio of the EC50s (our compound relative to DTG) against G118R", "setting": "HIV-1 IN mutant G118R; EC50 compound / EC50 DTG", "value": 16.8}, {"measurement": "EC50", "setting": "HIV-1 IN mutant G118R; Human immunodeficiency virus 1, read-out: EC50 values G118R", "value": "219 ± 29.8", "unit": "nM"}, {"measurement": "FC G118R", "setting": "HIV-1 IN mutant G118R; [2]", "value": 20.7}, {"measurement": "ratio of the EC50s (our compound relative to DTG) against Y143C", "setting": "HIV-1 IN mutant Y143C; EC50 compound / EC50 DTG", "value": 13.4}, {"measurement": "EC50", "setting": "HIV-1 IN mutant Y143C; Human immunodeficiency virus 1, read-out: EC50 values Y143C, single round infection, n = 4", "value": "18.8 ± 1.4", "unit": "nM"}, {"measurement": "EC50", "setting": "HIV-1 IN mutant Y143C; read-out: EC50 values Y143C, single round infection, n = 4", "value": "> 18", "unit": "nM"}, {"measurement": "ratio of the EC50s (our compound relative to DTG) against P142H", "setting": "HIV-1 IN mutant P142H; EC50 compound / EC50 DTG", "value": 9.2}, {"measurement": "EC50", "setting": "HIV-1 IN mutant P142H; Human immunodeficiency virus 1, read-out: EC50 values P142H", "value": "25.7 ± 2", "unit": "nM"}, {"measurement": "ratio of the EC50s (our compound relative to DTG) against N117H", "setting": "HIV-1 IN mutant N117H; EC50 compound / EC50 DTG", "value": 7.9}, {"measurement": "EC50", "setting": "HIV-1 IN mutant N117H; Human immunodeficiency virus 1, read-out: EC50 values N117H", "value": "19 ± 1.4", "unit": "nM"}, {"measurement": "FC N117H", "setting": "HIV-1 IN mutant N117H; [2]", "value": 1.8}, {"measurement": "ratio of the EC50s (our compound relative to DTG) against N155H", "setting": "HIV-1 IN mutant N155H; EC50 compound / EC50 DTG", "value": 3.9}, {"measurement": "EC50", "setting": "HIV-1 IN mutant N155H; Human immunodeficiency virus 1, read-out: EC50 values N155H", "value": "14.1 ± 4.3", "unit": "nM"}, {"measurement": "FC N155H", "setting": "HIV-1 IN mutant N155H; [2]", "value": 1.3}, {"measurement": "ratio of the EC50s (our compound relative to DTG) against R231K", "setting": "HIV-1 IN mutant R231K; EC50 compound / EC50 DTG", "value": 6.7}, {"measurement": "EC50", "setting": "HIV-1 IN mutant R231K; Human immunodeficiency virus 1, read-out: EC50 values R231K, single round infection, n = 4", "value": "28.2 ± 3.9", "unit": "nM"}, {"measurement": "FC R231K", "setting": "HIV-1 IN mutant R231K; [2]", "value": 2.7}, {"measurement": "ratio of the EC50s (our compound relative to DTG) against S119R", "setting": "HIV-1 IN mutant S119R; EC50 compound / EC50 DTG", "value": 16.6}, {"measurement": "EC50", "setting": "HIV-1 IN mutant S119R; Human immunodeficiency virus 1, read-out: EC50 values S119R", "value": "38.2 ± 6", "unit": "nM"}, {"measurement": "FC S119R", "setting": "HIV-1 IN mutant S119R; [2]", "value": 3.6}, {"measurement": "ratio of the EC50s (our compound relative to DTG) against Y143R", "setting": "HIV-1 IN mutant Y143R; EC50 compound / EC50 DTG", "value": 1.7}, {"measurement": "EC50", "setting": "HIV-1 IN mutant Y143R; Human immunodeficiency virus 1, read-out: EC50 values Y143R", "value": "7.2 ± 1.7", "unit": "nM"}, {"measurement": "FC Y143R", "setting": "HIV-1 IN mutant Y143R; [2]", "value": 0.7}, {"measurement": "ratio of the EC50s (our compound relative to DTG) against S230R", "setting": "HIV-1 IN mutant S230R; EC50 compound / EC50 DTG", "value": 2.4}, {"measurement": "EC50", "setting": "HIV-1 IN mutant S230R; Human immunodeficiency virus 1, read-out: EC50 values S230R", "value": "11.2 ± 1.6", "unit": "nM"}, {"measurement": "FC S230R", "setting": "HIV-1 IN mutant S230R; [2]", "value": 1.1}]}
